Laboratory results reported in publication PMC12677844, “Profiling Inhibitor Scaffolds for the Cancer Target Jumonji‐C Domain‐Containing Protein 6” (Chemmedchem, 2025).
Where “and” joins values, the source holds several entries; their conditions need not be identical. Equal entries are not always repeated. Where two headings read alike, the source gives them in different places.

How the values were obtained:
JMJD6 [1] = tested on: JMJD6; parameters: method as in earlier work; conditions: 10 µM JMJD6, 100 µM LUC7L2_267–278; ref [22]; read-out: reported IC50 (JMJD6, LC–MS) (converted); cited from earlier work
JMJD6 [2] = tested on: JMJD6; parameters: method as in PMID 34581506; conditions: 10 µM JMJD6, 100 µM LUC7L2_267–278; ref [35]; read-out: reported IC50 (JMJD6, MALDI‐TOF MS) (converted); cited from earlier work
full‐length His6‐JMJD6 = target: T1, full‐length His6‐JMJD6 (Homo sapiens, UniProt Q6NYC1); assay: JMJD6 SPE–MS inhibition assay (BRD4_511–550 hydroxylation); assay type: biochemical; conditions: for IC50: His6‐JMJD6 0.05 µM, 2OG 100 µM, FAS 2 µM, BRD4_511–550 1 µM, L‐ascorbic acid 100 µM, means of two independent runs (mean ± SD)
T1 construct: Isolated recombinant full‐length human JMJD6 with a N‐terminal His6‐tag; made in house; host or cells: Escherichia coli BL21 (DE3)
Protocol: Co‐substrate concentrations were chosen based on reported SPE–MS kinetic parameters for the JMJD6‐catalyzed BRD4_511–550 monohydroxylation reaction.^[ [56] ^] […] Since JMJD6 has a relatively high 2OG Kmapp , the JMJD6 SPE–MS inhibition assay employs a 2OG concentration which is relatively high compared to most other 2OG oxygenase SPE–MS assays, possibly more accurately reflecting cellular 2OG concentrations.^[ [59] ^, [60] ^] Likely saturating concentrations of LAA (100 µM) and FAS (2 µM) were used.
JMJD6 catalyzes oxidation of BRD4_511–550 to give multiple hydroxylation products,^[ [56] ^] an observation potentially complicating data analysis.
Isolated recombinant full‐length human JMJD6 with a N‐terminal His6‐tag was produced in Escherichia coli BL21 (DE3) cells and purified as reported.^[ [1] ^, [56] ^] […] Purified His6‐JMJD6 was stored at −78 °C; fresh aliquots were used for all JMJD6 assays.
DMSO and 2,4‐PDCA (final assay concentration: 500 µM) were used as negative and positive inhibition controls, respectively. Each reaction was performed in technical duplicates in adjacent wells of the assay plates.
Cosubstrate/cofactor stock solutions (L‐ascorbic acid, LAA: 50 mM in Milli‐Q Ultrapure grade water; 2‐oxoglutarate, 2OG: 20 mM in Milli‐Q Ultrapure grade water; ammonium iron(II) sulfate hexahydrate, FAS, (NH4)2Fe(SO4)2·6H2O: […] in 20 mM aqueous HCl diluted to 1 mM in Milli‐Q Ultrapure grade water) were freshly prepared from commercial solids (Sigma–Aldrich) on the day of the experiment. BRD4_511–550 ([…]) was synthesized by solid‐phase peptide synthesis and was purified by GL Biochem (Shanghai) Ltd (Shanghai, China). Stock solutions of BRD4_511–550 (10 mM in water) were stored at −20 °C.
The plates were centrifuged (1000 rpm, 5 s) and incubated for 15 min at ambient temperature. The substrate mixture (2 × final concentration), containing BRD4_511–550 (2 µM), LAA (200 µM), 2OG (200 µM), and FAS (4 µM) in Tris buffer (50 mM; pH 7.5), was then dispensed across the plates (25 µL per well) using the multidrop dispenser. The plates were centrifuged (1000 rpm, 5 s) and incubated for 20 min at ambient temperature. The enzyme reaction was then stopped by the addition of 10%v/v aqueous formic acid (5 μL per well) using a 16‐channel electronic pipette (ThermoFischer Scientific). The plates were then centrifuged (1000 rpm, 30 s) and analyzed by MS.
Assay samples were aspirated under vacuum for 0.4 s and then loaded onto a C4 SPE cartridge. After loading, the C4 SPE cartridge was washed with 0.1%v/v aqueous formic acid to remove nonvolatile buffer salts (5 s, 1.5 mL min^−1). BRD4_511–550 and the corresponding hydroxylated product peptides were eluted from the SPE cartridge with 0.1%v/v aqueous formic acid in 75/25v/v acetonitrile/water into the mass spectrometer (5 s, 1.6 mL min^−1); the SPE cartridge was subsequently re‐equilibrated with 0.1%v/v aqueous formic acid (1 s, 1.25 mL min^−1).
Peaks corresponding to the m/z + 5 charge states of BRD4_511–550 and the corresponding mono‐ and dihydroxylated product peptides were extracted from the ion chromatogram and integrated using RapidFire Integrator 4.3.0 (Agilent).
From the raw data, dose–response curves (normalized to the 2,4‐PDCA and DMSO controls) were obtained by nonlinear regression (GraphPad Prism 5), which were used to determine IC50 values.

JMJD6 [3] = tested on: JMJD6; parameters: method as in PMID 33991627; conditions: substrate other than BRD4_511–550, 2OG 10 μM, JMJD6 10 µM; ref [33]; read-out: reported IC50 (JMJD6, Succinate‐Glo) (converted); cited from earlier work
PHD2 = tested on: PHD2; parameters: method as in PMID 39291299; conditions: isolated PHD2; ref [100]; cited from earlier work

Row | SMILES | IC50 (JMJD6 [2]) | IC50 (full‐length His6‐JMJD6; read-out: IC50 (JMJD6, SPE–MS)) | also measured
1 | O=C(O)c1ccnc(C(=O)O)c1 [2,4‐PDCA, pyridine‐2,4‐dicarboxylic acid] | ~13 µM and 13 µM | ~1.6 µM and 1.6 µM | IC50 (JMJD6 [1]): ~5.4 µM and 5.4 µM
2 | O=C(O)C(=O)N[C@H](Cc1ccccc1)C(=O)O [NOFD, N‐oxalyl‐D‐phenylalanine] | – | > 50 µM | –
3 | COc1ccc(C(NC(=O)c2cnc(-c3cccnn3)nc2O)c2ccc(OC)cc2)cc1 [MK‐8617] | – | > 50 µM | –
4 | Cn1ccc(-c2cc(C(=O)OCC(F)(F)F)ccn2)n1 [Compound 7p] | – | ~4.2 µM and 4.2 µM | IC50 (JMJD6 [3]): 0.68 µM
5 | CC(C)(NC(=O)c1c(O)c2ccccc2n(OCc2cscn2)c1=O)C(=O)O [Compound 48] | – | ~7.1 µM and 19 µM | –
6 | O=C(O)/C=C/C(=O)O [Fumarate] | 165 µM | > 50 µM | –
7 | O=C(O)CCC(=O)O [Succinate] | 261 µM | > 50 µM | –
8 | O=c1c(-n2ccnn2)c[nH]n1-c1cc(N2CCOCC2)ncn1 [Molidustat] | 74 µM | ~20 µM and 20 µM | –
9 | O=C(O)CC[C@H](O)C(=O)O [L‐2‐Hydroxyglutarate] | 871 µM | > 50 µM | –
10 | CN(C)NC(=O)CCC(=O)O [Daminozide] | 94 µM | – | IC50 (full‐length His6‐JMJD6; IC50 (JMJD6, SPE–MS)): > 50 µM
11 | O=C(O)CC(=O)C(=O)O [Oxaloacetate] | 204 µM | > 50 µM | –
12 | O=C(O)c1ccncc1NCc1ccco1 [Compound 34] | – | ~2.6 µM and 2.6 µM | –
13 | Cn1ccc(-c2cc(C(=O)O)ccn2)n1 [Compound 10a] | – | ~0.07 µM and 0.07 µM | IC50 (JMJD6 [3]): ~1.7 µM and 1.7 µM; fold more potent than Compound 7p in inhibiting JMJD6 (full‐length His6‐JMJD6; SPE–MS IC50 comparison): ≈ 60 fold; ligand efficiency (LE) (full‐length His6‐JMJD6; from JMJD6 SPE–MS potency): 0.67; fold less potent in Succinate‐Glo assay than in SPE–MS assay (full‐length His6‐JMJD6; reported Succinate‐Glo IC50 versus SPE–MS IC50): ≈ 25 fold
14 | O=C(O)CC(O)C(=O)O (centres unmarked) [Malate] | 5100 µM | – | IC50 (full‐length His6‐JMJD6; IC50 (JMJD6, SPE–MS)): > 50 µM
15 | CN(C)CCCNC(=O)c1ccc(-c2cc(O)c3ncccc3c2)cc1 [ML324] | – | ~1.4 µM and 1.4 µM | –
16 | C/C(=C\C(=O)O)C(=O)O [Mesaconate] | – | > 50 µM | –
17 | O=C(O)CCNc1cc(N2CCc3ccccc3CC2)nc(-c2ccccn2)n1 [GSK‐J1] | – | > 50 µM | –
18 | O=C(O)CNC(=O)C1=C(O)CCN(Cc2ccc(Oc3ccc(Cl)cc3)nc2)C1=O [TP0463518] | – | ~1.1 µM and 1.1 µM | –
19 | O=C(O)CNC(=O)c1c(O)c2ccccc2n(OCC2CC2)c1=O [Desidustat] | – | ~2.7 µM and 2.7 µM | IC50 (PHD2): 1.3 µM
20 | CC(C)c1c(-c2ccccc2)[nH]c2c(C#N)cnn2c1=O [CPI‐455] | – | > 50 µM | –
